The values below come from patent US8455497B2, “Inhibitors of aspartyl protease” (Vertex Pharmaceuticals Incorporated, priority 1999, dated 2013).

pIC50: −log10 of the molar value. Read-outs that look alike come from different tables or passages of the source.

The subject of one experiment is HIV-1 (strain IIIB). The experiment can be described thus: Antiviral activity assay in MT4 cells (propidium iodide based). The experiment is classed as cell-based. In short, it runs like this: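 MT4 cells infected with HIV-1 IIIB (MOI 100×TCID50, 1 hr, 37°C), diluted 6-fold into wells with serially diluted compound, incubated 5 days. Cells lysed with Nonidet-40; DNA content per well estimated by propidium iodide staining as the viability read-out, with mock-infected controls.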

Experiment [1] has as its system D545701-14 multi protease inhibitor resistant virus. The experiment can be described thus: Anti-viral activity against resistant virus D545701-14 in MT4 cells. Format: cell-based, HIV-1.
Experiment [2] has as its system EP13 multi protease inhibitor resistant virus. Description: Anti-viral activity against resistant virus EP13 in MT4 cells. Format: cell-based, HIV-1. In short, it runs like this: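 MT4 cells infected for 1 h at 37 °C, MOI 100×TCID50, then diluted 6-fold onto pre-diluted compound and cultured 5 days (5% CO2). Viable-cell DNA content estimated by propidium iodide. EP13 carries protease mutations M46I, L63P, A71V, V82F/L, I84V, no RT mutations.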

Where [3] appears, read: Human immunodeficiency virus 1, IIIB, wild type HIV-1 virus, MT4 cells, read-out: Wildtype virus - IC50.
Where [4] appears, read: Human immunodeficiency virus 1, MT4, read-out: D545701-14 mutant - IC50, D545701-14 multi protease inhibitor resistant virus, MT4 cells.
The mark [5] stands for this setting: Human immunodeficiency virus 1, MT4, read-out: EP13 mutant IC50, EP13 multi protease inhibitor resistant virus, MT4 cells.

What is called pIC50 is −log10 of the IC50, conventionally taken in molar units. In the case of `CC(C)CN(C[C@@H](O)[C@H](Cc1ccc(OCCCn2cccn2)cc1)NC(=O)O[C@H]1CO[C@H]2OCC[C@H]21)S(=O)(=O)c1ccc2c(c1)OCO2` [Compound 284, (3R,3aS,6aR)-hexahydrofuro[2,3-b]furan-3-yl (1S,2R)-3-[(1,3-benzodioxol-5-ylsulfonyl)(isobutyl)amino]-2-hydroxy-1-{4-[3-(1H-pyrazol-1-yl)propoxy]benzyl}propylcarbamate], the pIC50 (in the experiment on HIV-1 (strain IIIB) (setting [3]); in experiment [1] (setting [4]); in experiment [2] (setting [5])) was 8.00 to 9.00 throughout.
Consider `CC(C)CN(C[C@@H](O)[C@H](Cc1ccc(OCCNC(=O)OC(C)(C)C)cc1)NC(=O)O[C@H]1CO[C@H]2OCC[C@H]21)S(=O)(=O)c1ccc2c(c1)OCO2` [Compound 219, (3R,3aS,6aR)-hexahydrofuro[2,3-b]furan-3-yl (1S,2R)-3-[(1,3-benzodioxol-5-ylsulfonyl)(isobutyl)amino]-1-(4-{2-[(tert-butoxycarbonyl)amino]ethoxy}benzyl)-2-hydroxypropylcarbamate], for which the pIC50 (with HIV-1 (strain IIIB) (setting [3]); in experiment [1] (setting [4]); in experiment [2] (setting [5])) was 8.00 to 9.00 throughout.
In the case of `CC(C)CN(C[C@@H](O)[C@H](Cc1ccc(OCc2ccncc2)cc1)NC(=O)O[C@H]1CO[C@H]2OCC[C@H]21)S(=O)(=O)c1ccc2c(c1)OCO2` [Compound 54, Bis-THF Methylenedioxybenzenesulfonamide 4-picolyl Tethered Product], the pIC50 in the experiment on HIV-1 (strain IIIB) (setting [3]) is 7.00 to 8.00; in the experiment on HIV-1 (strain IIIB) (Human immunodeficiency virus 1, MT4, 120 h, MT-4 cells, HIV-1 strain IIIB, 5 days, read-out: IC50 (Antiviral Activity of Compounds of the Invention)), 8.00 to 9.00; in experiment [1] (setting [4]), 8.00 to 9.00; in experiment [2] (setting [5]), 8.00 to 9.00.
As to `CC(C)CN(C[C@@H](O)[C@H](Cc1ccc(Oc2nc(F)c(F)c(F)c2F)cc1)NC(=O)O[C@H]1CO[C@H]2OCC[C@H]21)S(=O)(=O)c1ccc2c(c1)OCO2` [Compound 332, (3R,3aS,6aR)-hexahydrofuro[2,3-b]furan-3-yl (1S,2R)-3-[(1,3-benzodioxol-5-ylsulfonyl)(isobutyl)amino]-2-hydroxy-1-{4-[(3,4,5,6-tetrafluoro-2-pyridinyl)oxy]benzyl}propylcarbamate], the values for the pIC50 (in the experiment with HIV-1 (strain IIIB) (setting [3]); in experiment [1] (setting [4]); in experiment [2] (setting [5])) were 8.00 to 9.00, 7.00 to 8.00 and 8.00 to 9.00, respectively.
Consider `CNC(=O)CCCOc1ccc(C[C@H](NC(=O)OC2CO[C@H]3OCC[C@@H]23)[C@H](O)CN(CC(C)C)S(=O)(=O)c2ccc3c(c2)OCO3)cc1` (stereo in doubt) [Compound 286, (3R,3aS,6aR)-hexahydrofuro[2,3-b]furan-3-yl (1S,2R)-3-[(1,3-benzodioxol-5-ylsulfonyl)(isobutyl)amino]-2-hydroxy-1-{4-[4-(methylamino)-4-oxobutoxy]benzyl}propylcarbamate], for which the pIC50 in the experiment on HIV-1 (strain IIIB) (setting [3]) was 7.00 to 8.00; in experiment [1] (setting [4]), 8.00 to 9.00; in experiment [2] (setting [5]), 8.00 to 9.00.
As for `CC(C)CN(C[C@@H](O)[C@H](Cc1ccc(OCCCNS(C)(=O)=O)cc1)NC(=O)O[C@H]1CO[C@H]2OCC[C@H]21)S(=O)(=O)c1ccc2c(c1)OCO2` [Compound 251], the pIC50 with HIV-1 (strain IIIB) (wild type HIV-1 virus, MT4 cells, read-out: Wildtype virus - IC50) was 7.00 to 8.00; in experiment [1] (D545701-14 multi protease inhibitor resistant virus, MT4 cells, read-out: D545701-14 mutant - IC50), 8.00 to 9.00; in experiment [2] (EP13 multi protease inhibitor resistant virus, MT4 cells, read-out: EP13 mutant IC50) it was 8.00 to 9.00.
In the case of `CC(C)CN(C[C@@H](O)[C@H](Cc1ccc(OC(=O)NCCn2ccnc2)cc1)NC(=O)O[C@H]1CO[C@H]2OCC[C@H]21)S(=O)(=O)c1ccc2c(c1)OCO2` [Compound 313, (3R,3aS,6aR)-Hexahydrofuro[2,3-b]furan-3-yl (1S,2R)-3-[(1,3-benzodioxol-5-ylsulfonyl)(isobutyl)amino]-2-hydroxy-1-{4-[({[2-(1H-imidazol-1-yl)ethyl]amino}carbonyl)oxy]benzyl}propylcarbamate], the pIC50 in the experiment on HIV-1 (strain IIIB) (setting [3]) is 7.00 to 8.00; in experiment [1] (setting [4]), 8.00 to 9.00; in experiment [2] (setting [5]), 8.00 to 9.00.
For `CC(C)CN(C[C@@H](O)[C@H](Cc1ccc(OCc2ccccc2)cc1)NC(=O)O[C@H]1CO[C@H]2OCC[C@H]21)S(=O)(=O)c1ccc2c(c1)OCCO2` [Compound 365], the pIC50 (with HIV-1 (strain IIIB) (setting [3]); in experiment [1] (setting [4]); in experiment [2] (setting [5])) was 8.00 to 9.00 throughout.
On to `CC(C)CN(C[C@@H](O)[C@H](Cc1ccc(OCc2cccc(C#N)c2)cc1)NC(=O)O[C@@H]1CO[C@H]2OCC[C@H]21)S(=O)(=O)c1ccc(N)cc1` [Compound 301, (3S,3aS,6aR)-hexahydrofuro[2,3-b]furan-3-yl (1S,2R)-3-[[(4-aminophenyl)sulfonyl](isobutyl)amino]-1-{4-[(3-cyanobenzyl)oxy]benzyl}-2-hydroxypropylcarbamate], for which the pIC50 (with HIV-1 (strain IIIB) (setting [3]); in experiment [1] (setting [4]); in experiment [2] (setting [5])) was 8.00 to 9.00 in each case.
As for `CNC(=O)OCCCOc1ccc(C[C@H](NC(=O)O[C@H]2CO[C@H]3OCC[C@H]32)[C@H](O)CN(CC(C)C)S(=O)(=O)c2ccc3c(c2)OCO3)cc1` [Compound 320, (3R,3aS,6aR)-Hexahydrofuro[2,3-b]furan-3-yl (1S,2R)-3[(1,3-benzodioxol-5-ylsulfonyl)(isobutyl)amino]-2-hydroxy-1-[4-(3-{[(methylamino)carbonyl]oxy}propoxy)benzyl]propylcarbamate], the pIC50 (in the experiment on HIV-1 (strain IIIB) (setting [3]); in experiment [1] (setting [4]); in experiment [2] (setting [5])) was 8.00 to 9.00 in each case.
Regarding `CC(C)CN(C[C@@H](O)[C@H](Cc1ccc(Oc2ccc([N+](=O)[O-])cn2)cc1)NC(=O)O[C@H]1CO[C@H]2OCC[C@H]21)S(=O)(=O)c1ccc2c(c1)OCO2` [Compound 333, (3R,3aS,6aR)-hexahydrofuro[2,3-b]furan-3-yl (1S,2R)-3-[(1,3-benzodioxol-5-ylsulfonyl)(isobutyl)amino]-2-hydroxy-1-{4-[(5-nitro-2-pyridinyl)oxy]benzyl}propylcarbamate], the pIC50 (in the experiment on HIV-1 (strain IIIB) (setting [3]); in experiment [1] (setting [4]); in experiment [2] (setting [5])) was 8.00 to 9.00 throughout.
For `Cc1nc(COc2ccc(C[C@H](NC(=O)O[C@@H]3CO[C@H]4OCC[C@H]43)[C@H](O)CN(CC(C)C)S(=O)(=O)c3ccc(N)cc3)cc2)cs1` [Compound 300, (3S,3aS,6aR)-hexahydrofuro[2,3-b]furan-3-yl (1S,2R)-3-[[(4-aminophenyl)sulfonyl]-(isobutyl)amino]-2-hydroxy-1-{4-[(2-methyl-1,3-thiazol-4-yl)methoxy]benzyl}propylcarbamate], the pIC50 (in the experiment with HIV-1 (strain IIIB) (setting [3]); in experiment [1] (setting [4]); in experiment [2] (setting [5])) was 8.00 to 9.00 in each case.
Regarding `CC(C)CN(C[C@@H](O)[C@H](Cc1ccc(OCCN2CCSC2)cc1)NC(=O)O[C@H]1CO[C@H]2OCC[C@H]21)S(=O)(=O)c1ccc2c(c1)OCO2` [Compound 324, (3R,3aS,6aR)-Hexahydrofuro[2,3-b]furan-3-yl (1S,2R)-3-[(1,3-benzodioxol-5-ylsulfonyl)(isobutyl)amino]-2-hydroxy-1-{4-[2-(1,3-thiazolidin-3-yl)ethoxy]benzyl}propylcarbamate], the negative logarithm of the IC50 (pIC50) (in the experiment with HIV-1 (strain IIIB) (setting [3]); in experiment [1] (setting [4]); in experiment [2] (setting [5])) was 8.00 to 9.00 in each case.
`CC(C)CN(C[C@@H](O)[C@H](Cc1ccc(OCCc2ccccc2)cc1)NC(=O)O[C@H]1CO[C@H]2OCC[C@H]21)S(=O)(=O)c1ccc2c(c1)OCO2` [Compound 202, (3R,3aS,6aR)hexahydrofuro[2,3-b]furan-3-yl (1S,2R)-3-[(1,3-benzodioxol-5-ylsulfonyl)(isobutyl)amino]-2-hydroxy-1-[4-(phenethyloxy)benzyl]propylcarbamate]: the figures for the pIC50 (in the experiment with HIV-1 (strain IIIB) (setting [3]); in experiment [1] (setting [4]); in experiment [2] (setting [5])) were over 9.00, 8.00 to 9.00 and over 9.00, respectively.
Turning to `COCCNCCCOc1ccc(C[C@H](NC(=O)O[C@H]2CO[C@H]3OCC[C@H]32)[C@H](O)CN(CC(C)C)S(=O)(=O)c2ccc3c(c2)OCO3)cc1` [Compound 283, (3R,3aS,6aR)-hexahydrofuro[2,3-b]furan-3-yl (1S,2R)-3-[(1,3-benzodioxol-5-ylsulfonyl)(isobutyl)amino]-2-hydroxy-1-(4-{3-[(2-methoxyethyl)amino]propoxy}benzyl) propylcarbamate], the pIC50 with HIV-1 (strain IIIB) (setting [3]) was 7.00 to 8.00; in experiment [1] (setting [4]), 7.00 to 8.00; in experiment [2] (setting [5]) it was 8.00 to 9.00.
As to `Cc1noc(C)c1COc1ccc(C[C@H](NC(=O)O[C@H]2CO[C@H]3OCC[C@H]32)[C@H](O)CN(CC(C)C)S(=O)(=O)c2ccc3c(c2)OCO3)cc1` [Compound 385, (3R,3aS,6aR)-hexahydrofuro[2,3-b]furan-3-yl (1S,2R)-3-[(1,3-benzodioxol-5-ylsulfonyl)(isobutyl)amino]-1-{4-[(3,5-dimethyl-4-isoxazolyl)methoxy]benzyl}-2-hydroxypropylcarbamate], the pIC50 with HIV-1 (strain IIIB) (setting [3]) was 8.00 to 9.00; in experiment [1] (setting [4]), 7.00 to 8.00; in experiment [2] (setting [5]) it was 8.00 to 9.00.
As to `CCC(CC)ON(C[C@@H](O)[C@H](Cc1ccc(OCc2ccccc2)cc1)NC(=O)O[C@H]1CO[C@H]2OCC[C@H]21)S(=O)(=O)c1ccc2c(c1)OCO2` [Compound 329, (3R,3aS,6aR)-Hexahydrofuro[2,3-b]furan-3-yl (1S,2R)-3-[(1,3-benzodioxol-5-ylsulfonyl)(1-ethylpropoxy)amino]-1-[4-(benzyloxy)benzyl]-2-hydroxypropylcarbamate], the results for the pIC50 (in the experiment on HIV-1 (strain IIIB) (setting [3]); in experiment [1] (setting [4]); in experiment [2] (setting [5])) were 8.00 to 9.00, 7.00 to 8.00 and 7.00 to 8.00, respectively.
